Data on two compounds can be found in patent US8188268B2, “Porous crystalline saccharide, its preparation and uses” (Kabushiki Kaisha Hayashibara Seibutsu Kagaku Kenkyujo, priority 2005, dated 2012).

Data set [1] can be described thus: Specific surface area by nitrogen adsorption isotherms (BET). In kind it is physicochemical. As for the experimental part:
Specific surface area of the porous anhydrous crystalline trehalose was measured by the nitrogen adsorption isotherms using “MODEL ASAP-2400”, a specific surface area/pore size distribution analyzer commercialized by Micromeritics, Georgia, USA. […] The result was analyzed by the BET (Brunnauer, Emmet, and Teller) method. The commercial anhydrous crystalline trehalose, a reagent grade, commercialized by Hayashibara Biochemical Laboratories Inc., Okayama, Japan, was used as a control. […] Further, those pore size distribution charts are in FIG. 19. […] The results of the analysis on the specific surface area and the pore size distribution are summarized in Table 7, and the pore size distribution chart was in FIG. 24. As a control, “MALTOSE OM”, a hydrous crystalline maltose product with maltose purity of 98% or higher, produced by Hayashibara Co., Ltd., Okayama, Japan, was used.

A short description of data set [2]: Dissolution test against cold water at 10° C. In kind it is physicochemical. How it is done:
A dissolution test against cold water at 10° C. was carried out using the porous anhydrous crystalline trehalose prepared by treating at 70° C. for 60 min in Example 1, the porous anhydrous crystalline maltose prepared by the method in Example 3, and the porous hydrous crystalline maltose prepared by the method in Example 5, as samples. The results were compared with those of the controls, anhydrous crystalline trehalose, hydrous crystalline trehalose, and hydrous crystalline maltose.
Twenty milliliters of 10° C.-cold water was placed in a test tube with an internal diameter of 18 mm, and then stirred using a stirring bar. A crystalline saccharide sample was put into the test tube, and the time required for the complete dissolution (for the disappearance of precipitate particles) was measured. The amount of samples was set to be 0.5 g in the case of trehalose and to be 0.2 g in the case of maltose, and the stirring rate was set to be about 300 rpm in any case. The measurement of time for dissolution under the above conditions was carried out 5-times at each sample.

A short description of data set [3]: Pore size distribution by the mercury filling method. In kind it is physicochemical.
Data set [4] is described as follows: Flax seed oil powder: keeping of powdery form. The format is physicochemical. As to conditions: 1 part flax seed oil + 10 parts saccharide as base. As for the experimental part:
One part by weight of flax seed oil was admixed with 10 parts by weight of the porous anhydrous crystalline trehalose, prepared by treating at 70° C. for 60 min in Example 1, and then the mixture was kneaded to make into a powdery product. In the same manner, powdery products were prepared by using “TREHA®”, hydrous crystalline trehalose commercialized by Hayashibara Shoji Inc., Okayama, Japan, and anhydrous crystalline trehalose, prepared from hydrous crystalline trehalose by drying in vacuo at a high temperature according to the conventional method, as controls. […] The flaxseed oil powder can be preferably used as a supplement.

Data set [5] is described as follows: Preservation test of flax seed oil powder, volatile aldehydes by GC. The format is physicochemical. As to conditions: flax seed oil powder with this base. How it is done: As disclosed in Japanese Patent Kokai No. 123,195/2001 applied for by the same applicant of the present invention, it has been known that trehalose inhibits the decomposition of fatty acids and the formation of volatile aldehydes. Therefore, a preservation test of the flax seed oil powders were carried out according to the following method by using the flax seed oil powders prepared in Example 9 by using the porous anhydrous crystalline trehalose of the present invention or the control anhydrous crystalline trehalose as powderizing bases, and the amounts of the formed volatile aldehydes were compared.
One gram each of the flax seed oil powder was put into two 20 ml-vial, sealed with Butyl-rubber stopper, and then preserved in an incubator at 40° C. for three weeks. The vial was collected at the point of before the preservation or after preserving for 21 days and heated at 80° C. for 5 min. Then, 2 ml of vapor phase gas in the vial was directly subjected to gas chromatography (GC) analysis to determine the amount of volatile aldehydes. GC analysis was carried out according to the following conditions.
• Gas chromatograph: GC-17B, produced by Shimadzu Corporation, Kyoto, Japan; • Column: TC-FFAP capillary column (ID 0.52 mm×30 m), produced by GL Sciences Inc., Tokyo, Japan; • Column temperature: 40° C. to 100° C.

The nature of data set [6]: Oil-keeping ability with salad oil. The arrangement: key to Oil-keeping ability: (5 g salad oil / g saccharide added at endpoint) x 100. As to conditions: for Oil-keeping ability: (5 g salad oil / amount of added saccharide) x 100. In kind it is physicochemical. As for the experimental part: The oil-keeping ability of each crystalline saccharide was measured using the porous anhydrous crystalline trehalose prepared by treating at 70° C. for 60 min in Example 1, the control hydrous crystalline trehalose, and the control anhydrous crystalline trehalose as crystalline trehalose samples; and the porous anhydrous crystalline maltose prepared by the method in Example 3, the control hydrous crystalline β-maltose, and the control anhydrous crystalline α-maltose, and the control anhydrous crystalline β-maltose as crystalline maltose samples, and the results were compared.
The measurement of the oil-keeping ability of the crystalline saccharide was carried out according to the method disclosed in Japanese Patent Kokai No. 31,650/84. Five grams of “NISSHIN SALAD OIL”, a salad oil commercialized by Nisshin OiliO Group, Ltd., Tokyo, Japan, was placed in a 50-ml plastic container, and then gradually admixed with each powdery crystalline saccharide with stirring. […] When the amount of the mixed saccharide is further increased, the agglomerate increase in solidity and then loosen. The point that the agglomerate is loosened is estimated to be the endpoint and the oil-keeping ability was calculated using the following formula. Oil-Keeping Ability =(The amount of salad oil(5 g)/the amount of added PCS*)×100 *: Powdery crystalline saccharide tm Formula 1

Data set [7] in a line: Crystal moisture content (Karl Fischer) on moisture absorption and drying. The format is physicochemical. How it is done:
Hydrous crystalline saccharides were prepared from the respective porous anhydrous crystalline saccharide using the porous anhydrous crystalline trehalose, obtained by treating at 70° C. for 60 min in Example 1, and the porous anhydrous crystalline maltose, obtained by treating at 70° C. for 480 min in Example 3, as materials. About 50 g of the porous anhydrous crystalline saccharide and about 150 ml of deionized water were placed in respective container. Then, the both open containers were placed in the same closed vessel and leaved to stand at 27° C. for two days. By the treatment, the anhydrous crystalline saccharide was allowed to absorb moisture and converted into hydrous crystal. The resulting hydrous crystal was dried in a drying machine at 50° C. for one hour to remove excess moisture. The moisture contents of the porous anhydrous crystalline trehalose and the porous anhydrous crystalline maltose before and after the treatment to absorb moisture and after drying are in Table 6. The moisture content of crystals was measured by the conventional Karl Fischer's method.

The conditions of data set [8]: background art; cited from earlier work.
The mark [9] stands for this setting: 20 ml water 10° C., about 300 rpm, 0.5 g trehalose or 0.2 g maltose, listed as Porous anhydrous crystalline trehalose (Present invention).
Setting [10] is: 21 days after preservation at 40° C., listed as Porous anhydrous crystalline trehalose (Present invention).
The mark [11] stands for this setting: before preservation, listed as Porous anhydrous crystalline trehalose (Present invention).

“And” between values parts separate entries of the source, which are not always exact repeats. Identical values can stand only once. Like-named read-outs stand apart in the source and are kept apart here. A value given as a limit tells only on which side of the number the result lay.

On to `OC[C@H]1O[C@H](O[C@H]2O[C@H](CO)[C@@H](O)[C@H](O)[C@H]2O)[C@H](O)[C@@H](O)[C@@H]1O` [Porous anhydrous crystalline trehalose (treated at 70° C. fo] [α-D-glucosyl α-D-glucoside], for which the “Specific surface area relative to control crystalline saccharide” value in data set [1] (compared with control(s)) is reported as not below 5 folds. In data set [1] (nitrogen adsorption isotherms, BET), this compound yielded a Specific surface area of 2.513 m^2/g. Further, in data set [2] (setting [9]), the “Time required for dissolution, No. 1” value was found to be 29 s; the “Time required for dissolution, No. 2” value was 34 s; the “Time required for dissolution, No. 3” value is 40 s; the “Time required for dissolution, No. 4” value came out at 29 s. In data set [2] (setting [9]), the “Time required for dissolution, No. 5” value came to 31 s. Also, the “Time required for dissolution, Average” value in data set [2] (average of 5, 20 ml water 10° C., about 300 rpm, 0.5 g trehalose or 0.2 g maltose, listed as Porous anhydrous crystalline trehalose (Present invention)) is 33 s. Also, the “Dissolution in cold water in comparison with controls” value in data set [2] (cold water 10° C.) is reported as “rapidly dissolved in cold water”. Also, in data set [3], the Intrusion volume turned out to be 0.28 mL/g, the Mode pore diameter came out at 0.20 μm, the “Pore diameter of clear peak in pore size distribution chart” value is “less than 5 μm” and the “Remarks (pores)” value is given as “Having clear pores”. In data set [3] (control maltose values are from space between particles, not pores), this compound returned a Median pore diameter of 0.29 μm. The Intrusion volume in data set [3] (listed as porous anhydrous crystalline trehalose) is 0.22 mL/g and 0.28 mL/g. For the same compound, the “Powdery form of flax seed oil powder” value in data set [4] is “kept good powdery form”. For the same compound, in data set [5] (21 days after preservation at 40° C.), the 2-Heptenal is on record as 0.01 μg/ml-vapor phase gas. In addition, in data set [5] (setting [10]), the “2,4-Decadienal” value was determined as 4.01 μg/ml-vapor phase gas, the 2-Hexenal is on record as 0.01 μg/ml-vapor phase gas, the 2-Nonenal is reported as 0.19 μg/ml-vapor phase gas and the 2-Octenal was 0.43 μg/ml-vapor phase gas. Besides, in data set [5] (setting [10]), the Acetoaldehyde is listed as 3.77 μg/ml-vapor phase gas, the Butanal is reported as 0.63 μg/ml-vapor phase gas, the Hexanal is given as 0.11 μg/ml-vapor phase gas and the Pentanal is given as 0.33 μg/ml-vapor phase gas. Besides, in data set [5] (setting [10]), the Propanal is reported as 8.66 μg/ml-vapor phase gas and the Total aldehydes came to 18.15 μg/ml-vapor phase gas. In data set [5] (before preservation), the 2-Heptenal was found to be 0.00 μg/ml-vapor phase gas and the 2-Hexenal worked out at 0.00 μg/ml-vapor phase gas. In data set [5] (setting [11]), the “2,4-Decadienal” value was determined as 3.66 μg/ml-vapor phase gas, the 2-Nonenal is 0.00 μg/ml-vapor phase gas, the 2-Octenal amounted to 0.11 μg/ml-vapor phase gas and the Acetoaldehyde is on record as 4.13 μg/ml-vapor phase gas. In data set [5] (setting [11]), this compound displayed a Butanal of 0.43 μg/ml-vapor phase gas, a Hexanal of 0.00 μg/ml-vapor phase gas, a Pentanal of 0.09 μg/ml-vapor phase gas and a Propanal of 5.77 μg/ml-vapor phase gas. The same compound registered a Total aldehydes in data set [5] (setting [11]) of 14.19 μg/ml-vapor phase gas. The compound also showed an Oil-keeping ability in data set [6] of 62.5. In addition, the Oil-keeping ability in data set [6] (listed as Porous anhydrous crystalline trehalose (Present invention)) stood at 62.5. Further, the “Oil-keeping ability relative to control” value in data set [6] (compared with control crystalline saccharide) is listed as “about 1.6 folds”. Moreover, the “Crystal moisture content, after drying” value in data set [7] (after moisture absorption and drying at 50° C. for one hour) was 9.66 %, w/w. In addition, the “Crystal moisture content, before treatment” value in data set [7] (before moisture absorption) is 0.24 %, w/w. Further, the “Crystal moisture content, after treatment” value in data set [7] (closed vessel with water, 27° C., two days) was 10.32 %, w/w.

`OC[C@H]1O[C@@](CO)(O[C@H]2O[C@H](CO)[C@@H](O)[C@H](O)[C@H]2O)[C@@H](O)[C@@H]1O` [granulated sugar, sucrose]: in data set [8], the Specific surface area result was “about 0.1 m^2/g”.
